pIC50: −log10 of the molar value.
Key:
C. trachomatis = experiment: Chlamydia trachomatis growth inhibition assay in HEp-2 host cells; format: cell-based; conditions: 62.5 µM; for anti-chlamydial activity against C. trachomatis: 30 h post infection, HEp-2 host cells
Experimental: The workflow for the evaluation of chlamydial growth inhibition is described in the supplementary information (Figure S6). Briefly, HEp-2 cells were seeded in a 96-well plate and grown for 24 h; they were then infected with a fixed quantity of C. trachomatis. The infection was propagated for 4 h, and then a mixture of test compound and cycloheximide was added and the plate was incubated for a further 26 h (30 h post infection). The cells were fixed with methanol and then stained with fluorescent antibodies to visualize chlamydial inclusions, and the growth was measured using inclusion counts relative to vehicle controls.
HEp-2 cells were grown until confluent in a T-75 flask with DMEM (containing 10% FCS, gentamycin (0.05 mg/mL), streptomycin (0.1 mg/mL) and glutamine (Sigma-Aldrich Cat No. G7513, 4 mM); they were then harvested with trypsin, and the cell density was determined with a haemocytometer. Cells were diluted to 1 × 10^5 cells/mL, and 200 µL was dispensed to each well in a 96-well plate and then incubated for 24 h at 5% CO2 at 37 °C.
The supernatant was removed, and 100 µL of the respective chlamydia species in media (100,000 IFU/mL) was added, giving an MOI of 0.5. The plate was sealed and centrifuged at 500× g/28 °C for 30 min and then incubated for a further 3.5 h at 37 °C with 5% CO2. The supernatant was removed, and 100 µL of cycloheximide in DMEM (1 µg/mL) was added in addition to 100 µL of drug stock solution to each respective well with DMSO and media negative controls and also azithromycin positive control. The plate was incubated for a further 26 h.
The supernatant was removed, and wells were washed with PBS (2 × 150 µL) and then fixed in methanol for eight minutes. The methanol was removed and washed with additional PBS (2 × 150 µL) and stored at 4 °C with 100 µL PBS per well and then stained and analyzed using fluorescence microscopy, which is outlined below.
Cells in fixed plates were permeabilized with 0.5% Triton X-100 in PBS for 15 min and then blocked with 1% BSA in PBS for 45 min. Anti-HtrA polyclonal antibody (sera) (1:600) (in-house), anti-mouse tubulin (Sigma-Aldrich Cat no. T-5168, 1:3000) and DAPI (125 ng/mL) in PBS were added to each well (70 µL) and then gently shaken at room temperature while shielding it from light for 45 min. The primary antibodies were removed, and the wells were washed with PBS (4 × 150 µL). Secondary antibodies (goat anti-rabbit Alexafluor 488, Thermo Fisher Cat No. A-11008 and goat anti-mouse Alexafluor 568 (Thermo Fisher Cat No. A-11004)) in PBS (70 µL, 1:600 respectively) were added and the wells were gently shaken at room temperature while shielding them from light for 45 min. The antibodies were removed, and the wells were washed with PBS (5 × 150 µL); cells were then stored with PBS (100 µL per well) at 4 °C pending analysis.
Plates were analyzed on an INcell Analyzer 2200 (Cytiva Life Sciences, Marlborough, MA, USA) using both laser autofocus (10%) and software autofocus modes, with ten random images per well covering a minimum of 80% of the well at 10x magnification. Non-morphologically affected inclusions were counted using a macro in ImageJ (v1.54f), and MIC was defined as being one two-fold dilution more concentrated than MICTP (where MICTP is defined as the lowest concentration to produce ≥90% morphologically abnormal inclusions) relative to solvent controls.

CtHtrA = molecular target: T1, CtHtrA (Chlamydia trachomatis serovar D, UniProt P18584); experiment: CtHtrA protease inhibition assay; format: biochemical; conditions: for Relative Potency against CtHtrA: [IC50 of control]/[IC50 test compound]; for pIC50: IC50 against CtHtrA; for Relative Selectivity: (relative CtHtrA potency)/(relative HLE potency)
T1 construct: made in house; host or cells: E. coli BL21(DE3), pET22b
Experimental: The inhibitory activity of compounds 2a–g against CtHtrA was evaluated. […] As these compounds are reportedly covalent inhibitors of serine proteases, a true IC50 is unable to be calculated. Instead, the residual activity of the protease is monitored over time in response to a range of compound concentrations, and an IC50 value is interpolated from a dose–response curve (see Figures S2–S4 and Tables S1 and S2). This IC50 value is then compared to a positive control (JO146 was used for 2a–g, and 2g was used for 6a–h), giving the ‘relative potency’. This is the established method for assessing CtHtrA inhibitory potency. […] This effect may be due to depth restrictions within the S1 subpocket, as kinetic studies on the rates of protease inhibition in HLE were reduced by larger C-3 alkoxy substituents. Chain branching (iso-propyl and sec-butyl substituents) increased the activity, resulting in a 1.4-fold increase for 2e over 2b and a 2.8-fold improvement for 2g over 2c.
CtHtrA was expressed using an procedure adapted from the literature. Recombinant E. coli BL21(DE3) pET22b was grown in LB media containing 100 ug/mL ampicillin to an OD600 of 0.5-0.6 in 5 × 400 mL batches at 37 °C. Isopropyl β-D-1-thioglactopyranoside (1 M, 400 µL, 1 mM final concentration) was added to each flask and incubated at 30 °C with shaking at 150 rpm for an additional 2.5 h. The culture was centrifuged at 4000× g for 15 min at 4 °C, and the cell pellet was harvested and resuspended in lysis buffer (50 mM phosphate, 10 mM imidazole, 500 mM NaCl, 0.1% Triton X-100, 10% glycerol). Lysozyme was added to the suspended cells and was sonicated in 15 cycles of 15 s, with one minute between cycles while maintaining 4 °C, and then centrifuged at 8000× g for 20 min to remove any debris, retaining the supernatant for protein purification.
TALON® metal affinity resin (Takara cat no. 635652, 5 mL) was added to each lysate tube and washed sequentially with lysis buffer (2 × 45 mL) and stringency buffer (4 × 45 mL) and then eluted with elution buffer (2 × 5 mL), allowing incubations at 4 °C for 20 min per wash, and centrifuging at 2500× g and 4 °C between washes to pellet the resin. The eluates were dialyzed in Tris buffer (pH 7.0, 50 mM, 4 L) with magnesium chloride (20 mM) at 4 °C five times over 24 h, with a minimum of three hours per dialysis change. Protein expression and isolation were confirmed with SDS-PAGE Coomassie stained gel, which was examined for the band at the correct size, and a BCA assay to confirm purified protein concentration prior to use.
CtHtrA was added to 25 wells in a black 96-well plate (40–80 µL, 10 µL increments), to which Tris-HCl buffer (50 mM, pH 7.0 with 20 mM MgCl2) was added to bring the total volume to 90 µL for 10 wells and 85 µL for the remaining 15. JO146 (10 µM, 5 µL) was added to 5 wells and JO146 (1 µM, 5 µL) was added to another 5 wells, with DMSO (5 µL) being added to the remaining 5 as a control. The plate was incubated at 37 °C for 10 min before substrate (MCA-ENLHLPLPIIFK-DNP, 10 µL, 1 mg/mL, 50% isopropanol in buffer) was added and analyzed in a TECAN Infinite Pro M200 plate reader with an excitation wavelength of 340 nm and fluorescence measured at 405 nm with four reads per well at 60 s intervals. A minimum volume of CtHtrA granting a fluorescence change of 300 min^−1 was used for subsequent assay.
The determined appropriate volume of CtHtrA in buffer was added to a 96-well non-transparent black plate and diluted to 85 µL with buffer solution. Drug or control (5 µL) at a maximum of 20% DMSO/80% buffer was added to the appropriate well with DMSO controls, and the plate was incubated for 10 min to allow activation by the protein. MCA-ENLHLPLPIIFK-DNP (Mimotopes, Australia, 1 mg/mL, 10 µL) was added and immediately monitored on a TECAN M200 Infinite plate reader at 37 °C every 60 s for 30 min, using the same wavelengths as for the activity evaluation. […]

[1] = molecular target: T2, Human Leukocyte Elastase (HLE) (Homo sapiens, UniProt P08246); design: method as in PMID 3910097; conditions: cited from earlier work
T2 construct: purchased Athens Research and Technology 16-15-051200
T2 sequence (P08246 30-247 limits assumed): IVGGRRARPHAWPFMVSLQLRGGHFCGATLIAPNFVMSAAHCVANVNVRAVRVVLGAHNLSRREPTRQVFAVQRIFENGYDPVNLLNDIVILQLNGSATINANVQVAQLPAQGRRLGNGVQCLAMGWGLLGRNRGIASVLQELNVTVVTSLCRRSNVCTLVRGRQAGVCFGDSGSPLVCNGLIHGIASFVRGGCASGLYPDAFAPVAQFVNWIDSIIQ

[2] = molecular target: T2, Human Leukocyte Elastase (HLE); experiment: HLE protease inhibition assay; format: biochemical; conditions: for pIC50: Table S1, variable slope four parameter fit, read-out: IC50 against HLE; for Relative Potency against HLE: [IC50 of JO146]/[IC50 test compound]
Experimental: Elastase was purchased from Athens Research and Technology (Cat No. 16-15-051200). Elastase (100 µg) was dissolved in Tris buffer (100 mM Tris, 20 mM CaCl2, pH 8.1, 3.14 mL), giving a concentration of 1.117 µM, and 25 µL was added to each well containing the respective inhibitor. The plate was incubated at 37 °C for 15 min.
N-Suc-AAA-pNA (Sigma Aldrich, Bayswater, Australia, S4760, 100 µL, 1 mg/mL, […]) was added to each well, and the absorbance was monitored every six minutes at 405 nm. The rate of change of absorbance was used as a comparison to controls to determine the % inhibition of protein in Microsoft Excel^TM (v2402), and these values were exported to GraphPad Prism (v8.0.1) for IC50 calculation.

[3] = Table S2, Batch 1, control JO146
[4] = Table S2, Batch 2, control JO146

T1 sequence (P18584 17-497): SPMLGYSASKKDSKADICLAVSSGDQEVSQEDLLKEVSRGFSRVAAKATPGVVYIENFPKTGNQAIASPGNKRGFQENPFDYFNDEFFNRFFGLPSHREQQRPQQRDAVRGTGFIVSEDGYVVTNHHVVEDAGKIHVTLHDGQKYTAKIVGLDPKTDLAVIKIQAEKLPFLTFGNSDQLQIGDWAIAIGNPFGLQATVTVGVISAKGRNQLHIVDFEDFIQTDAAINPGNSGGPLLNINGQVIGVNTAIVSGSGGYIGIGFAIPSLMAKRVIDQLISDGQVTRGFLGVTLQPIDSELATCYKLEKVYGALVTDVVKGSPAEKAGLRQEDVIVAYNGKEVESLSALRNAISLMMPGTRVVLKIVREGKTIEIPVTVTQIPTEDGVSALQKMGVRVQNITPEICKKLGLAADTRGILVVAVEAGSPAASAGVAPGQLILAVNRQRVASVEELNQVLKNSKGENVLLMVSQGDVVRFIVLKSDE

## CCC(C)Oc1oc(=O)c2cc(Br)ccc2c1Cl (racemic) [Compound 6f, (±)-7-Bromo-3-sec-butoxy-4-chloro-isocoumarin]
C. trachomatis
  anti-chlamydial activity against C. trachomatis: abolished observable activity
CtHtrA; control 2g
  Relative Potency against CtHtrA: 0.057

## CCC(C)Oc1oc(=O)c2cc(Cl)ccc2c1Cl (racemic) [Compound 6g, (±)-3-sec-Butoxy-4,7-dichloro-isocoumarin]
C. trachomatis
  anti-chlamydial activity against C. trachomatis: did not significantly affect the efficacy of 2g
C. trachomatis; relative to solvent controls
  statistical significance of anti-chlamydial activity: statistically significant anti-chlamydial activity
CtHtrA; Table S2, Batch 5, control 2g
  pIC50: 4.14
CtHtrA; control 2g
  Relative Potency against CtHtrA: 0.390

## O=c1oc(Cl)c(Cl)c2ccccc12 [3,4-dichloroisocoumarin]
[1]
  molecular turnover against HLE: 3.1

## CCOc1oc(=O)c2ccccc2c1Cl [Compound 2b, 3-Ethoxy-4-chloroisocoumarin]
[2]
  pIC50: 4.91
  Relative Potency against HLE: 0.0664
CtHtrA
  Relative Selectivity: 56.4
CtHtrA; [3]
  pIC50: 4.72
CtHtrA; control JO146
  Relative Potency against CtHtrA: 3.73

## CCCOc1oc(=O)c2ccccc2c1Cl [Compound 2c, 3-Propoxy-4-chloroisocoumarin]
[2]
  pIC50: 5.60
  Relative Potency against HLE: 0.323
CtHtrA
  Relative Selectivity: 6.92
CtHtrA; [3]
  pIC50: 4.49
CtHtrA; control JO146
  Relative Potency against CtHtrA: 2.23

## CCCCOc1oc(=O)c2ccccc2c1Cl [Compound 2d, 3-Butoxy-4-chloroisocoumarin]
[2]
  pIC50: 5.58
  Relative Potency against HLE: 0.310
CtHtrA
  Relative Selectivity: 5.08
CtHtrA; [3]
  pIC50: 4.34
CtHtrA; control JO146
  Relative Potency against CtHtrA: 1.57

## CC(C)Oc1oc(=O)c2ccccc2c1Cl [Compound 2e, 3-iso-Propoxy-4-chloroisocoumarin]
[2]
  pIC50: 5.71
  Relative Potency against HLE: 0.419
CtHtrA; 2e over 2b
  fold increase in CtHtrA inhibitory activity: 1.4 fold
CtHtrA
  Relative Selectivity: 12.7
CtHtrA; [4]
  pIC50: 4.95
CtHtrA; control JO146
  Relative Potency against CtHtrA: 5.32

## CC(C)COc1oc(=O)c2ccccc2c1Cl [Compound 2f, 3-iso-Butoxy-4-chloroisocoumarin]
[2]
  pIC50: 5.65
  Relative Potency against HLE: 0.368
CtHtrA
  Relative Selectivity: 4.08
CtHtrA; [4]
  pIC50: 4.40
CtHtrA; control JO146
  Relative Potency against CtHtrA: 1.50

## O=c1oc(Cl)cc2ccccc12 [Compound 3-choro-]
[1]
  molecular turnover against HLE: 15
